Results: US20250101052A1, “COMPOUND FOR EGFR KINASE INHIBITOR, COMPOSITION, AND USE THEREOF” (INNOVATION INSTITUTE FOR ARTIFICIAL INTELLIGENCE IN …, priority 2021, published 2025)

Columns and labels:
[1] = test system: BaF3-EGFR^L858R/C797S cells; experiment: BaF3 cell proliferation inhibition experiment (CCK-8); assay type: cell-based; conditions: Ba/F3 EGFR-L858R, 72 h, read-out: BaF3-EGFR^L858R/C797S (IC50 nM)
[2] = test system: BaF3-EGFR^del19/C797S cells; experiment: as above; assay type: cell-based; conditions: Mus musculus, BaF3, 72 h, read-out: BaF3-EGFR^del19 /C797S (IC50 nM)
Aurora B = Aurora B (Homo sapiens (Human), UniProt Q96GD4); experiment: Activity of other kinases: Aurora B (HTRF); assay type: biochemical
Protocol: Embodiment 5 Activity of Other Kinases
(1) Preparation of 1×kinase reaction buffer:
1 time the volume of 5×kinase reaction buffer and 4 times the volume of water; 5 mM MgCl2; 1 mM DTT.
(2) Screening of Compounds:
a) The compound was diluted with DMSO in a dilution plate.
b) The compound was diluted 40 times into the 1× kinase reaction buffer and oscillated on an oscillator for 20 minutes.
c) 2× was prepared using a 1× enzyme reaction buffer.
d) 2 μL of kinase was added to each well of the reaction plate.
e) 1 μL of the compound diluted in the buffer was added to each well, and the plate was sealed with a sealing film, centrifuged at 1000 rpm for 60 seconds and incubated at 25° C. for 10 minutes.
f) A mixture of 2.5×S2 &TK-substrate-biotin and ATP was prepared using the 1× enzyme reaction buffer, and 2 μL of the S2 &TK-substrate-biotin/ATP mixture was added to the reaction plate.
G) The plate was sealed with a sealing film, centrifuged at 1000 rpm for 60 seconds and incubated at 25° C. for 50&40&30&20 minutes.
h) 4× Sa-XL 665 was prepared using an HTRF detection buffer.
i) 5 μL of Sa-XL 665 and 5 μL of STK/TK-antibody-Cryptate were added to each well, centrifugation was conducted at 1000 rpm for 60 seconds, and incubation was conducted at 25° C. for 1 hour.
j) The fluorescence signals at 615 nm (Cryptate) and 665 nm (XL665) were read using the BGM microplate reader.

[3] = Stability testing of liver microsomes, human; assay type: in vitro ADME; conditions: for CLint scaled at 1 µM / half-life at 1 µM: pH 7.41, human liver microsomes
Protocol: (§1) 1. 100 mM K-buffer was preheated with 5 mM MgCl2 with a pH value of 7.41.
(§2) 2. Preparation of testing solution
(§3) 0.5 mM solution A: 5 μL of the 10 mM compound stock solution was added for reference to 95 μL of ACN.
(§4) 1.5 μM microsome solution (0.75 mg/mL): 1.5 μL of a 500 μM solution and 18.75 μL of 20 mg/mL liver microsomes were added to 479.75 μL of K/Mg-buffer.
(§5) 3. The K/Mg-buffer NADPH solution (6 mM, 5 mg/mL) was prepared.
(§6) 4. […] of human, monkey, and mouse liver microsomes with a 0.75 mg/mL concentration were added to detection plates at different time points (0, 15, 30, 45, and 60 minutes).
(§7) 5. Pre-incubation was conducted at 37° C. for 5 minutes.
(§8) 6. At 0 min, before 15 μL of the NADPH stock solution (6 mM) was added, 150 μL of ACN containing IS was added.
(§9) NADPH was dissolved in the K/mg buffer to prepare a 6 mm and 5 mg/mL NADPH stock solution.
(§10) 7. At other time points, 15 μL of the NADPH stock solution (6 mM) was added to the well for starting the reaction and timing.
(§11) 8. 150 μL of ACN containing IS was added to the corresponding plate wells at 15 min, 30 min, 45 min, and 60 min, respectively, and the reaction was stopped.
(§12) 9. After quenching, shaking well was conducted for 10 minutes (600 rpm), and centrifugation was conducted at 6000 rpm for 15 minutes.
(§13) 10. 80 μL of the supernatant in each well was transferred to a 96-well sample plate (containing 140 μL of pure water) for LC/MS analysis.

[4] = Stability testing of liver microsomes, monkey; assay type: in vitro ADME; conditions: for CLint scaled at 1 µM / half-life at 1 µM: pH 7.41, monkey liver microsomes
Protocol: as §1, §2, §3, §4, §5, §6, §7, §8, §9, §10, §11, §12, §13

[5] = Stability testing of liver microsomes, mouse; assay type: in vitro ADME; conditions: for CLint scaled at 1 µM / half-life at 1 µM: pH 7.41, mouse liver microsomes
Protocol: as §1, §2, §3, §4, §5, §6, §7, §8, §9, §10, §11, §12, §13

Sequence of Aurora B (Q96GD4 whole entry): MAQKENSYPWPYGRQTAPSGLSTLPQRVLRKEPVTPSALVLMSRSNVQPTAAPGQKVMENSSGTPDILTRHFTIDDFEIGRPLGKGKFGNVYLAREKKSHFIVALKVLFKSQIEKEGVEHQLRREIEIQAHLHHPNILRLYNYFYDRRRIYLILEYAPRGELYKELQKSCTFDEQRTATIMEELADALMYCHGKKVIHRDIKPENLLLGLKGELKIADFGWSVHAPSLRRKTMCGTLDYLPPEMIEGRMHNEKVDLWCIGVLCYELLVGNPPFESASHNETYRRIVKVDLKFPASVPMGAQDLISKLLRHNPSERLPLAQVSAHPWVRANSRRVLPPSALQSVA

SMILES	IC50 [1] [nM]	IC50 [2] [nM]	IC50 (Aurora B) [nM]	stability in liver microsomes (in words) ([3]; humans)	CLint scaled at 1 µM [3] [mL/min/kg]	half-life at 1 µM [3] [min]	stability in liver microsomes (in words) ([4]; monkeys)	CLint scaled at 1 µM [4] [mL/min/kg]	half-life at 1 µM [4] [min]	stability in liver microsomes (in words) ([5]; mice)	CLint scaled at 1 µM [5] [mL/min/kg]	half-life at 1 µM [5] [min]
CCc1cc(Nc2ncc(Cl)c(Nc3ccc(C)c(C)c3P(C)(C)=O)n2)c(OC)cc1N1CC2(CCN(C)CC2)C1 [Compound 24, (6-((5-Chloro-2-((5-ethyl-2-methoxy-4-(7-methyl-2,7-diazaspiro[3.5]non-2-yl)phenyl)amino)pyrimidin-4-yl)amino)-2,3-dimethylphenyl)dimethylphosphine oxide]	158	202	410	good stability	< 9.6	> 145	good stability	27.7	50	good stability	< 9.6	> 145
CCc1cc(Nc2ncc(Cl)c(Nc3ccc(C)c(C)c3P(C)(C)=O)n2)c(OC)cc1N1CCC(N2CCN(C)CC2)CC1 [Comparative Compound A, reference compound]	–	–	2010	–	49.8	27.8	–	52	26.7	–	18.2	76.1
CCc1cc(Nc2ncc(Cl)c(Nc3ccc(C)c(C)c3P(C)(C)=O)n2)c(OC)cc1N1CCC(N2C[C@H]3CC[C@@H](C2)N3C)CC1 [Compound 51, (6-((5-chloro-2-((5-ethyl-2-methoxy-4-(4-((1R,5S)-8-methyl-3,8-diazabicyclo[3.2.1]octan-3-yl)piperidin-1-yl)phenyl)amino)pyrimidin-4-yl)amino)-2,3-dimethylphenyl)dimethylphosphine oxide]	116	146	–	–	–	–	–	–	–	–	–	–
